Experimental data as given in patent US20030232851A1, “Viral treatment” (The Procter & Gamble Company, priority 1999, published 2003).
Values after ≈ are worked out from the molar mass of the structure shown. Values joined by “and” are separate entries in the source; they are usually repeats but may differ in a detail not shown here. Equal entries are not always repeated.

What was measured:
vero cells = system: vero cells; design: unit not given beside the values; settings: African green monkey
hepatitis B, HEPG22.2.15 = assay: In vitro virus production test of hepatitis B, DNA copy number; assay type: cell-based
HEPG22.2.15 = assay: Hepatitis B test: toxicity values; assay type: cell-based
Cryptococcus neoformans = assay: Anti-fungal activity (NCCLS M-27A based), Cryptococcus neoformans; assay type: cell-based
Method: (§1) It was active against cryptococcus neoformans and curvularai lunata. The cidal activity for the C. neoformans is high enough that it is clear […] against this yeast. This test was conducted using a method based upon NCCLS reference method M-27A published in 1997. Solvent, medium and growth controls were set-up with the tests. Once these were read to validate the test performance, the QC fungi were read to insure they had expected results. These steps validated the test system. DMSO was used as a drug-chemical solvent. […] The 90% cut-off is necessary for azoles, which are static and not cidal. The FMC or cidal level was determined by sub-culturing a sample from each tube showing no growth.

Curvularia lunata = assay: Anti-fungal activity (NCCLS M-27A based), Curvularia lunata; assay type: cell-based; settings: growth inhibited or reduced at least 90%
Method: as §1

## Nc1nc2c(ncn2COCCO)c(=O)[nH]1 [Acyclovir]
Vero cells
  TC50: > 1

## Nc1ccn([C@@H]2CS[C@H](CO)O2)c(=O)n1 [3TC, lamivudine]
Hepatitis B, HEPG22.2.15; 0.0032 μg/ml
  DNA Copy Number, % virus control: 97.8%
  DNA Copy Number, mean: 280.4 per 3 μl
  DNA Copy Number, samples 1-3: 265.4 per 3 μl and 328.0 per 3 μl and 247.9 per 3 μl
Hepatitis B, HEPG22.2.15; 0.01 μg/ml
  DNA Copy Number, % virus control: 87.8%
  DNA Copy Number, mean: 251.7 per 3 μl
  DNA Copy Number, samples 1-3: 286.1 per 3 μl and 276.7 per 3 μl
Hepatitis B, HEPG22.2.15; 0.032 μg/ml
  DNA Copy Number, % virus control: 80.4%
  DNA Copy Number, mean: 230.4 per 3 μl
  DNA Copy Number, samples 1-3: 243.2 per 3 μl and 255.3 per 3 μl
Hepatitis B, HEPG22.2.15; 0.1 μg/ml
  DNA Copy Number, % virus control: 24.2%
  DNA Copy Number, mean: 69.4 per 3 μl
  DNA Copy Number, samples 1-3: 73.0 per 3 μl and 74.8 per 3 μl and 60.5 per 3 μl
Hepatitis B, HEPG22.2.15; 0.32 μg/ml
  DNA Copy Number, % virus control: 13.1%
  DNA Copy Number, mean: 46.1 per 3 μl
  DNA Copy Number, samples 1-3: 36.7 per 3 μl and 45.1 per 3 μl and 56.5 per 3 μl
Hepatitis B, HEPG22.2.15; 1 μg/ml
  DNA Copy Number, % virus control: 1.4%
  DNA Copy Number, mean: 4.0 per 3 μl
Hepatitis B, HEPG22.2.15; HepG2 2.2.15, first experiment
  IC50: 0.089 µg/mL (≈ 0.388 µM)
Hepatitis B, HEPG22.2.15; HepG2 2.2.15, replicate experiment
  IC50: 0.021 µg/mL (≈ 0.0916 µM)
HEPG22.2.15; 0.0032 μg/ml
  Toxicity Values, % cell control: 90.8%
  Toxicity Values, mean: 1.137
  Toxicity Values, samples 1-3: 1.009 and 1.173 and 1.230
HEPG22.2.15; 0.01 μg/ml
  Toxicity Values, % cell control: 84.6%
  Toxicity Values, mean: 1.060
  Toxicity Values, samples 1-3: 1.001 and 1.081 and 1.099
HEPG22.2.15; 0.032 μg/ml
  Toxicity Values, % cell control: 94.3%
  Toxicity Values, mean: 1.181
  Toxicity Values, samples 1-3: 1.074 and 1.153 and 1.316
HEPG22.2.15; 0.1 μg/ml
  Toxicity Values, mean: 1.190
  Toxicity Values, samples 1-3: 1.151 and 1.220 and 1.200
HEPG22.2.15; 0.32 μg/ml
  Toxicity Values, % cell control: 93.6%
  Toxicity Values, mean: 1.172
  Toxicity Values, samples 1-3: 1.082 and 1.207 and 1.227
HEPG22.2.15; 1 μg/ml
  Toxicity Values, % cell control: 106.5%
  Toxicity Values, mean: 1.334
  Toxicity Values, samples 1-3: 1.423 and 1.256 and 1.322
HEPG22.2.15; first experiment
  TC50: > 1 µg/mL
HEPG22.2.15; replicate experiment
  TC50: > 1 µg/mL

## c1ccc2[nH]c(-c3cscn3)nc2c1 [Thia, thiabendazole]
Cryptococcus neoformans; Cryptococcus neoformans, cidal level
  MFC: > 32 µg/mL
Cryptococcus neoformans; Cryptococcus neoformans, growth inhibited or reduced at least 90%
  MIC: 16 µg/mL (≈ 79.5 µM)
Curvularia lunata; Curvularia lunata
  MIC: ≥ 32 µg/mL

## methyl 1,2- benzimidazole carbamate or benomyl
Cryptococcus neoformans; cidal level
  MFC data: >32 µg/mL
Cryptococcus neoformans; growth inhibited or reduced at least 90%
  MIC data: 8 µg/mL
Curvularia lunata
  MIC data: 0.06 µg/mL
